Data on eleven compounds can be found in ChEMBL document CHEMBL3045091, “Synthesis and antimicrobial activities of some new 5-((3-(aryl)-1-phenyl-1H-pyrazol-4-yl)methylene)-3-phenylthiazolidine-2,4-diones” (2012).

In experiment [1] the test system is Staphylococcus aureus. In words: Antibacterial activity against Staphylococcus aureus MTCC 96 at 4 mg/ml after 24 hr by agar well diffusion method. It counts as functional. The following applies: MTCC 96, 24 h, read-out: DIZ.
Experiment [2] concerns Staphylococcus aureus. The experiment in a line: Antibacterial activity against Staphylococcus aureus MTCC 96 after 24 hr by macro dilution tube method. The experiment is classed as functional. As to conditions: MTCC 96, 24 h.
Experiment [3] has as its system Bacillus subtilis. In words: Antibacterial activity against Bacillus subtilis MTCC 121 at 4 mg/ml after 24 hr by agar well diffusion method. The following applies: MTCC 121, 24 h, read-out: DIZ. It counts as functional.
The subject of experiment [4] is Bacillus subtilis. The experiment in a line: Antibacterial activity against Bacillus subtilis MTCC 121 after 24 hr by macro dilution tube method. It counts as functional. As to conditions: MTCC 121, 24 h.
For a further experiment, the system named is Aspergillus niger. In words: Antifungal activity against Aspergillus niger after 7 days by poisoned food technique. The experiment is classed as functional.
In experiment [5] the test system is Pseudomonas aeruginosa. The following applies: MTCC 741, 4 mg/ml.
Description: (§1) Antibacterial activity against Pseudomonas aeruginosa MTCC 741 at 4 mg/ml after 24 hr by agar well diffusion method
The next experiment deals with Escherichia coli. The experiment in a line: Antibacterial activity against Escherichia coli MTCC 1652 at 4 mg/ml after 24 hr by agar well diffusion method. The experiment is classed as functional, organism-based.
A further experiment has as its system Aspergillus flavus. In words: Antifungal activity against Aspergillus flavus after 7 days by poisoned food technique. The experiment is classed as functional.
For experiment [6], the system named is Pseudomonas aeruginosa. In words: microbe, parasite or virus in culture. The following applies: MTCC 741, 24 h, read-out: DIZ.
Description: as §1

≈ marks a conversion by molar mass, not a printed value. Calls of active or inactive are those of the source. The rule behind the calls is not given here.

For `O=C1S/C(=C\c2cn(-c3ccccc3)nc2-c2ccc([N+](=O)[O-])cc2)C(=O)N1c1ccccc1`, the zone of inhibition at 4000 µg/mL came out at 20.6 mm in the experiment with Staphylococcus aureus [1] and 18.3 mm in the experiment on Bacillus subtilis [3]. The values for the MIC against Staphylococcus aureus [2] and in the experiment on Bacillus subtilis [4] were 64 µg/mL (≈ 137 µM) and 128 µg/mL (≈ 273 µM), respectively. For the same compound, the “growth inhibition (GI)” value is given as 50% in the experiment on Aspergillus niger and 61.1% in the experiment with Aspergillus flavus. In addition, in the experiment on Pseudomonas aeruginosa [5], the DIZ result was “inactive”. Further, the “diameter of the inhibition zone (DIZ)” value in the experiment with Escherichia coli was “inactive”.

For the compound `O=C1S/C(=C\c2cn(-c3ccccc3)nc2-c2ccc(Cl)cc2)C(=O)N1c1ccccc1`, the results for the zone of inhibition at 4000 µg/mL in the experiment with Staphylococcus aureus [1] and in the experiment with Bacillus subtilis [3] were 20.6 mm and 18.3 mm, respectively. In addition, the minimum inhibitory concentration (MIC) in the experiment on Staphylococcus aureus [2] was determined as 64 µg/mL (≈ 140 µM); against Bacillus subtilis [4] it was 128 µg/mL (≈ 280 µM). The “growth inhibition (GI)” value in the experiment with Aspergillus niger amounted to 55.5%; in the experiment on Aspergillus flavus it was 61.1%. The DIZ result with Pseudomonas aeruginosa [5] is “inactive”. Besides, the “diameter of the inhibition zone (DIZ)” value in the experiment with Escherichia coli is “inactive”.

As to `O=C1S/C(=C\c2cn(-c3ccccc3)nc2-c2ccc(Br)cc2)C(=O)N1c1ccccc1`, the figures for the zone of inhibition at 4000 µg/mL in the experiment with Staphylococcus aureus [1] and with Bacillus subtilis [3] were 21.6 mm and 20.6 mm, respectively. The minimal inhibitory concentration (MIC) in the experiment with Staphylococcus aureus [2] and against Bacillus subtilis [4] was 32 µg/mL (≈ 63.7 µM) in each case. Further, the “growth inhibition (GI)” value with Aspergillus niger is recorded as 38.8%; in the experiment with Aspergillus flavus, 55.5%. In addition, in the experiment with Pseudomonas aeruginosa [5], the DIZ entry was “inactive”. Also, the “diameter of the inhibition zone (DIZ)” value in the experiment on Escherichia coli was “inactive”.

Regarding `Cc1ccc(-c2nn(-c3ccccc3)cc2/C=C2\SC(=O)N(c3ccccc3)C2=O)cc1`, the zone of inhibition at 4000 µg/mL in the experiment on Staphylococcus aureus [1] is 18.3 mm; in the experiment with Bacillus subtilis [3], 19.6 mm. For the same compound, the MIC with Staphylococcus aureus [2] stood at 128 µg/mL (≈ 293 µM); with Bacillus subtilis [4], 64 µg/mL (≈ 146 µM). For the same compound, the “growth inhibition (GI)” value in the experiment with Aspergillus niger is reported as 44.4%; in the experiment with Aspergillus flavus, 50%. Moreover, the DIZ result in the experiment with Pseudomonas aeruginosa [5] is “inactive”. In the experiment on Escherichia coli, the “diameter of the inhibition zone (DIZ)” value is “inactive”.

With `OC(Cn1cncn1)(Cn1cncn1)c1ccc(F)cc1F` [FLUCONAZOLE], the “growth inhibition (GI)” value in the experiment on Aspergillus niger is listed as 81.1%; with Aspergillus flavus, 77.7%.

Regarding `O=C(O)c1cn(C2CC2)c2cc(N3CCNCC3)c(F)cc2c1=O` [CIPROFLOXACIN], the zone of inhibition at 4000 µg/mL with Staphylococcus aureus [1] came to 26 mm; with Pseudomonas aeruginosa [6], 22 mm; in the experiment on Bacillus subtilis [3], 24 mm. In addition, the minimal inhibitory concentration (MIC) in the experiment on Staphylococcus aureus [2] and in the experiment on Bacillus subtilis [4] was 5 µg/mL (≈ 15.1 µM) throughout.

As to `O=C1S/C(=C\c2cn(-c3ccccc3)nc2-c2ccccc2)C(=O)N1c1ccccc1`, the figures for the zone of inhibition at 4000 µg/mL in the experiment on Staphylococcus aureus [1] and in the experiment with Bacillus subtilis [3] were 18.6 mm and 19.3 mm, respectively. The MIC in the experiment with Staphylococcus aureus [2] came out at 128 µg/mL (≈ 302 µM); in the experiment with Bacillus subtilis [4] it was 64 µg/mL (≈ 151 µM). Also, the “growth inhibition (GI)” value in the experiment on Aspergillus niger turned out to be 55.5%; in the experiment with Aspergillus flavus, 50%. Besides, the DIZ entry in the experiment on Pseudomonas aeruginosa [5] was “inactive”. Also, in the experiment with Escherichia coli, the “diameter of the inhibition zone (DIZ)” value is “inactive”.

For `O=C1S/C(=C\c2cn(-c3ccccc3)nc2-c2cccs2)C(=O)N1c1ccccc1`, the zone of inhibition at 4000 µg/mL amounted to 22.3 mm in the experiment with Staphylococcus aureus [1] and 21.6 mm in the experiment on Bacillus subtilis [3]. The MIC against Staphylococcus aureus [2] and with Bacillus subtilis [4] was 32 µg/mL (≈ 74.5 µM) each time. Besides, the figures for the “growth inhibition (GI)” value in the experiment on Aspergillus niger and in the experiment with Aspergillus flavus were 50% and 33.3%, respectively. Further, the DIZ result in the experiment with Pseudomonas aeruginosa [5] was “inactive”. The “diameter of the inhibition zone (DIZ)” value in the experiment on Escherichia coli was “inactive”.

As to `O=C1S/C(=C\c2cn(-c3ccccc3)nc2-c2ccc(F)cc2)C(=O)N1c1ccccc1`, the zone of inhibition at 4000 µg/mL with Staphylococcus aureus [1] was determined as 19.3 mm; in the experiment with Bacillus subtilis [3], 20.6 mm. Further, the MIC in the experiment with Staphylococcus aureus [2] came out at 128 µg/mL (≈ 290 µM); with Bacillus subtilis [4] it was 32 µg/mL (≈ 72.5 µM). Besides, the “growth inhibition (GI)” value with Aspergillus niger and with Aspergillus flavus was 55.5% in each case. The DIZ entry in the experiment with Pseudomonas aeruginosa [5] is “inactive”. In addition, in the experiment on Escherichia coli, the “diameter of the inhibition zone (DIZ)” value was “inactive”.

Consider `O=C1S/C(=C\c2cn(-c3ccccc3)nc2-c2ccc(O)cc2)C(=O)N1c1ccccc1`, for which the zone of inhibition at 4000 µg/mL in the experiment on Staphylococcus aureus [1] is 20.3 mm; in the experiment with Bacillus subtilis [3], 18.3 mm. For the same compound, the MIC against Staphylococcus aureus [2] was 64 µg/mL (≈ 146 µM); against Bacillus subtilis [4], 128 µg/mL (≈ 291 µM). Moreover, the “growth inhibition (GI)” value is on record as 50% with Aspergillus niger and 44.4% in the experiment on Aspergillus flavus. In addition, the DIZ result in the experiment with Pseudomonas aeruginosa [5] was “inactive”. Moreover, the “diameter of the inhibition zone (DIZ)” value in the experiment on Escherichia coli is “inactive”.

With `COc1ccc(-c2nn(-c3ccccc3)cc2/C=C2\SC(=O)N(c3ccccc3)C2=O)cc1`, the zone of inhibition at 4000 µg/mL turned out to be 18.6 mm in the experiment on Staphylococcus aureus [1] and 16.6 mm in the experiment on Bacillus subtilis [3]. Moreover, the MIC in the experiment with Staphylococcus aureus [2] and against Bacillus subtilis [4] was 128 µg/mL (≈ 282 µM) throughout. For the same compound, the “growth inhibition (GI)” value in the experiment on Aspergillus niger was found to be 50%; in the experiment on Aspergillus flavus it was 66.6%. Besides, the DIZ entry in the experiment with Pseudomonas aeruginosa [5] is “inactive”. Moreover, the “diameter of the inhibition zone (DIZ)” value in the experiment on Escherichia coli is “inactive”.
